Assay results published in ChEMBL document CHEMBL5247604, “Discovery of novel hybrids containing clioquinol-1-benzyl-1,2,3,6-tetrahydropyridine as multi-target-directed ligands (MTDLs) against Alzheimer's disease” (Eur J Med Chem, 2022).
pIC50: −log10 of the molar value. Active and inactive are the calls of the source. The calls are words filed in the database; no cut-off is given here.

How the values were obtained:
[1] = molecular target: Acetylcholinesterase (Electrophorus electricus, UniProt O42275); assay: Inhibition of electric eel AChE using acetylthiocholine iodide as substrate preincubated for 15 mins followed by substrate addition by Ellman's method
[2] = Metal chelating activity assessed as Cu2+-compound complex formation by measuring red shift in presence of CuSO4 at 40 uM incubated for 30 mins by UV-Visible spectrophotometry
[3] = Metal chelating activity assessed as Fe2+-compound complex formation by measuring red shift in presence of FeSO4 at 40 uM incubated for 30 mins by UV-Visible spectrophotometry
[4] = Metal chelating activity assessed as Fe3+-compound complex formation by measuring red shift in presence of FeCl3 at 40 uM incubated for 30 mins by UV-Visible spectrophotometry
[5] = Metal chelating activity assessed as Zn2+-compound complex formation by measuring red shift in presence of ZnCl2 at 40 uM incubated for 30 mins by UV-Visible spectrophotometry
[6] = Metal chelating activity assessed as Al3+-compound complex formation by measuring red shift in presence of AlCl3 at 40 uM incubated for 30 mins by UV-Visible spectrophotometry
[7] = molecular target: T1, Amyloid-beta precursor protein (Homo sapiens, UniProt P05067); assay: Inhibition of Cu2+ induced amyloid beta (1 to 42 ) (unknown origin) aggregation incubated for 24 hr by Thioflavin T based fluorometric assay
[8] = molecular target: T1, Amyloid-beta precursor protein; assay: Inhibition of Cu2+ induced amyloid beta (1 to 42 ) (unknown origin) aggregation assessed as reduction in fibrils incubated for 24 hr by TEM analysis
[9] = molecular target: T1, Amyloid-beta precursor protein; assay: Inhibition of amyloid beta (1 to 42 ) (unknown origin) self aggregation incubated for 24 hr by Thioflavin T based fluorometric assay
[10] = molecular target: T1, Amyloid-beta precursor protein; assay: Inhibition of AChE induced HFIP-pretreated amyloid beta (1 to 42 ) (unknown origin) aggregation at 0.1 to 10 uM incubated for 24 hr by Thioflavin T based fluorometric assay; conditions: dose 0.1-10 µM
[11] = molecular target: T1, Amyloid-beta precursor protein; assay: Inhibition of AChE induced HFIP-pretreated amyloid beta (1 to 42 ) (unknown origin) aggregation incubated for 24 hr by Thioflavin T based fluorometric assay
[12] = test system: SH-SY5Y; assay: Cytotoxicity against human SH-SY5Y cells assessed as reduction in cell viability upto 50 uM incubated for 24 hrs by MTT assay; format: toxicity, cell-based
[13] = molecular target: Acetylcholinesterase (Homo sapiens, UniProt P22303); assay: Inhibition of AChE in human SH-SY5Ycells assessed as reduction AChE activity using acetylthiocholine as substrate incubated for 24 hrs by DTNB based Ellman's method; format: cell-based, SH-SY5Y
[14] = test system: SH-SY5Y; assay: (§1) Neuroprotective activity in human SH-SY5Y cells assessed as inhibition of okadaic acid-induced mitochondrial membrane potential by measuring increase in red-to-green fluorescence intensity ratio at 1 to 10 uM pretreated for 24 hrs followed by okadaic acid addition for 24 hrs by JC-1 dye based fluorescence analysis; format: functional, cell-based; conditions: dose 1-10 µM
[15] = test system: SH-SY5Y; assay: as §1, with “ratio” for “ratio at 1 to 10 uM”; format: functional, cell-based
[16] = test system: SH-SY5Y; assay: Antioxidant activity against okadaic acid-induced ROS generation in human SH-SY5Y cells assessed as reduction in DCF fluorescence intensity at 1 to 10 uM pretreated for 24 hrs followed by okadaic acid addition for 24 hrs by DCFH-DA dye based fluorescence analysis; format: functional, cell-based; conditions: dose 1-10 µM
[17] = test system: SH-SY5Y; assay: Antioxidant activity against okadaic acid-induced ROS generation in human SH-SY5Y cells assessed as reduction in DCF fluorescence intensity pretreated for 24 hrs followed by okadaic acid addition for 24 hrs by DCFH-DA dye based fluorescence analysis; format: functional, cell-based
[18] = test system: SH-SY5Y; assay: Antialzheimer activity in human SH-SY5Y cells assessed as inhibition of GA-induced tau hyperphosphorylation at Ser199 residue at 0.1 to 3 uM incubated for 24 hrs by ELISA; format: functional, cell-based; conditions: dose 0.1-3 µM
[19] = test system: SH-SY5Y; assay: Antialzheimer activity in human SH-SY5Y cells assessed as inhibition of GA-induced tau hyperphosphorylation at Ser396 residue at 0.1 to 3 uM incubated for 24 hrs by ELISA; format: functional, cell-based; conditions: dose 0.1-3 µM
[20] = test system: SH-SY5Y; assay: Antialzheimer activity in human SH-SY5Y cells assessed as inhibition of GA-induced tau hyperphosphorylation at Ser199 residue incubated for 24 hrs by ELISA; format: functional, cell-based
[21] = test system: SH-SY5Y; assay: Antialzheimer activity in human SH-SY5Y cells assessed as inhibition of GA-induced tau hyperphosphorylation at Ser396 residue incubated for 24 hrs by ELISA; format: functional, cell-based
[22] = Acute toxicity in ICR mouse assessed as mortality at 1200 mg/kg, po and measured after 4 hrs; format: organism-based; conditions: in vivo
[23] = Acute toxicity in ICR mouse assessed as abnormal behavior at 1200 mg/kg, po and measured after 4 hrs; format: organism-based; conditions: in vivo
[24] = Acute toxicity in ICR mouse assessed as altered water consumption at 1200 mg/kg, po and measured after 4 hrs; format: organism-based; conditions: in vivo
[25] = Acute toxicity in ICR mouse assessed as altered food consumption at 1200 mg/kg, po and measured after 4 hrs; format: organism-based; conditions: in vivo
[26] = Acute toxicity in ICR mouse assessed as change in body weight at 1200 mg/kg, po and measured after 4 hrs; format: organism-based; conditions: in vivo
[27] = Acute toxicity in ICR mouse assessed as mortality at 1200 mg/kg, po and measured after 24 hrs; format: organism-based; conditions: in vivo
[28] = Acute toxicity in ICR mouse assessed as abnormal behavior at 1200 mg/kg, po and measured after 24 hrs; format: organism-based; conditions: in vivo
[29] = Acute toxicity in ICR mouse assessed as altered water consumption at 1200 mg/kg, po and measured after 24 hrs; format: organism-based; conditions: in vivo
[30] = Acute toxicity in ICR mouse assessed as altered food consumption at 1200 mg/kg, po and measured after 24 hrs; format: organism-based; conditions: in vivo
[31] = Acute toxicity in ICR mouse assessed as change in body weight at 1200 mg/kg, po and measured after 24 hrs; format: organism-based; conditions: in vivo
[32] = Acute toxicity in ICR mouse assessed as mortality at 1200 mg/kg, po and measured after 14 days; format: organism-based; conditions: in vivo, 336 h, time 14 day
[33] = Acute toxicity in ICR mouse assessed as abnormal behavior at 1200 mg/kg, po and measured after 14 days; format: organism-based; conditions: in vivo, 336 h, time 14 day
[34] = Acute toxicity in ICR mouse assessed as altered water consumption at 1200 mg/kg, po and measured after 14 days; format: organism-based; conditions: in vivo, 336 h, time 14 day
[35] = Acute toxicity in ICR mouse assessed as altered food consumption at 1200 mg/kg, po and measured after 14 days; format: organism-based; conditions: in vivo, 336 h, time 14 day
[36] = Acute toxicity in ICR mouse assessed as change in body weight at 1200 mg/kg, po and measured after 14 days; format: organism-based; conditions: in vivo, 336 h, time 14 day
[37] = test system: Mus musculus; assay: Antialzheimer activity in scopolamine-induced cognitive impairment ICR mouse model assessed as time latency to reach target at 15 mg/kg,ip qd for 10 days followed by scopolmaine-stimulation measured on day 16 by Morris water maze test (Rvb= 71.89 +/- 25.59 sec); format: functional; conditions: time 10 day
[38] = test system: Mus musculus; assay: Antialzheimer activity in scopolamine-induced cognitive impairment ICR mouse model assessed as distance to reach target at 15 mg/kg,ip qd for 10 days followed by scopolmaine-stimulation measured on day 16 by Morris water maze test (Rvb= 16.93 +/- 5.88 meter); format: functional; conditions: time 10 day
[39] = test system: Mus musculus; assay: Antialzheimer activity in human oligo-merized amyloid beta (1 to 42 residues)-induced cognitive impairment C57BL/6 mouse model assessed as decrease in escape latency at 15 mg/kg,ip qd for 10 days by Morris water maze test relative to control; format: functional, organism-based; conditions: time 10.0 day
[40] = test system: Mus musculus; assay: Antialzheimer activity in human oligo-merized amyloid beta (1 to 42 residues)-induced cognitive impairment C57BL/6 mouse model assessed as increase in percentage of time spent in the target quadrant at 15 mg/kg,ip qd for 10 days by Morris water maze test relative to control; format: functional, organism-based; conditions: time 10.0 day
[41] = test system: Mus musculus; assay: Antialzheimer activity in human oligo-merized amyloid beta (1 to 42 residues)-induced cognitive impairment C57BL/6 mouse model assessed as increase in ratio of brain to body weight at 15 mg/kg,ip qd for 10 days by Morris water maze test; format: functional, organism-based; conditions: time 10.0 day
[42] = test system: Mus musculus; assay: Antialzheimer activity in human oligo-merized amyloid beta (1 to 42 residues)-induced cognitive impairment C57BL/6 mouse model assessed as increase duration in novel arm at 15 mg/kg,ip qd for 10 days by Y-maze test relative to control; format: functional, organism-based; conditions: time 10.0 day
[43] = test system: Mus musculus; assay: Antialzheimer activity in human oligo-merized amyloid beta (1 to 42 residues)-induced cognitive impairment C57BL/6 mouse model assessed as decrease IL-1beta level in cortex at 15 mg/kg,ip qd for 10 days by ELISA; format: functional, organism-based; conditions: time 10.0 day
[44] = test system: Mus musculus; assay: Antialzheimer activity in human oligo-merized amyloid beta (1 to 42 residues)-induced cognitive impairment C57BL/6 mouse model assessed as decrease TNF-alpha level in cortex at 15 mg/kg,ip qd for 10 days by ELISA; format: functional, organism-based; conditions: time 10.0 day

T1 sequence (P05067 whole entry): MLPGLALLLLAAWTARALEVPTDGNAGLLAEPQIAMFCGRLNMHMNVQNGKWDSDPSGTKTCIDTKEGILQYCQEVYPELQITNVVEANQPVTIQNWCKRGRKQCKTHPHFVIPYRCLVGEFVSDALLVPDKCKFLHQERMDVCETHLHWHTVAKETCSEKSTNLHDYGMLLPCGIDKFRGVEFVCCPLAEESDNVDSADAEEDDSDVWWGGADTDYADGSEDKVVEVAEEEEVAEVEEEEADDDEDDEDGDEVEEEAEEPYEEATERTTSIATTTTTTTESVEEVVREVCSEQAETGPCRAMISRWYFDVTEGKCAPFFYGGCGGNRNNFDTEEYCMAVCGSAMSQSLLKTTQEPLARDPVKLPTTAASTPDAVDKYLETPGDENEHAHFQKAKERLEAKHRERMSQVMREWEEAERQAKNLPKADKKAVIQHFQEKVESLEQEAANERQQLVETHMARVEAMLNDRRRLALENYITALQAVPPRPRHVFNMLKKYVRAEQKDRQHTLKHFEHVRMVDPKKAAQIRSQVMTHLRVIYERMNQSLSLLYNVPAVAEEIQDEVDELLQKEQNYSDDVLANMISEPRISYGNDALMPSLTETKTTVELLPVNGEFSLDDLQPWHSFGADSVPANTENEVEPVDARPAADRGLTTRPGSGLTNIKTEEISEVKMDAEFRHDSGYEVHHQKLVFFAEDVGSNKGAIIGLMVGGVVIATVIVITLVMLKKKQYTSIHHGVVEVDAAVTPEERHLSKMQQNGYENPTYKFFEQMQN
Sequence of Acetylcholinesterase (Electrophorus electricus, UniProt O42275) (O42275 whole entry): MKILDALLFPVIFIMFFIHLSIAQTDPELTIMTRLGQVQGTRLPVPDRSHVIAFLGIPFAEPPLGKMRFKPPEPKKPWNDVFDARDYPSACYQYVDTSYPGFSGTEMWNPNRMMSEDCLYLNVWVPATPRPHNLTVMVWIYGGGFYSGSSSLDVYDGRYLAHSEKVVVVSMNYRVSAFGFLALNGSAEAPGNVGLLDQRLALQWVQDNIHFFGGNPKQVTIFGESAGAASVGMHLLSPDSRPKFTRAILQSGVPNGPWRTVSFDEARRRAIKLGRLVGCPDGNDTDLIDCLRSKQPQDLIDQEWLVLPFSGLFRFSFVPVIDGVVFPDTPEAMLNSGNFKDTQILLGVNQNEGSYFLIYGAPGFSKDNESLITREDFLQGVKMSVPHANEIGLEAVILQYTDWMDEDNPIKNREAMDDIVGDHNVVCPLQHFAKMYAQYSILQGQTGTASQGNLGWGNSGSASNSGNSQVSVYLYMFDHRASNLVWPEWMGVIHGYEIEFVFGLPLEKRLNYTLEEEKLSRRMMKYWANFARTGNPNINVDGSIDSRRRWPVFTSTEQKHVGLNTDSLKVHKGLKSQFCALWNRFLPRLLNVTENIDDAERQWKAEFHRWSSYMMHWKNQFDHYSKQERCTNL
Sequence of Acetylcholinesterase (Homo sapiens, UniProt P22303) (P22303 whole entry): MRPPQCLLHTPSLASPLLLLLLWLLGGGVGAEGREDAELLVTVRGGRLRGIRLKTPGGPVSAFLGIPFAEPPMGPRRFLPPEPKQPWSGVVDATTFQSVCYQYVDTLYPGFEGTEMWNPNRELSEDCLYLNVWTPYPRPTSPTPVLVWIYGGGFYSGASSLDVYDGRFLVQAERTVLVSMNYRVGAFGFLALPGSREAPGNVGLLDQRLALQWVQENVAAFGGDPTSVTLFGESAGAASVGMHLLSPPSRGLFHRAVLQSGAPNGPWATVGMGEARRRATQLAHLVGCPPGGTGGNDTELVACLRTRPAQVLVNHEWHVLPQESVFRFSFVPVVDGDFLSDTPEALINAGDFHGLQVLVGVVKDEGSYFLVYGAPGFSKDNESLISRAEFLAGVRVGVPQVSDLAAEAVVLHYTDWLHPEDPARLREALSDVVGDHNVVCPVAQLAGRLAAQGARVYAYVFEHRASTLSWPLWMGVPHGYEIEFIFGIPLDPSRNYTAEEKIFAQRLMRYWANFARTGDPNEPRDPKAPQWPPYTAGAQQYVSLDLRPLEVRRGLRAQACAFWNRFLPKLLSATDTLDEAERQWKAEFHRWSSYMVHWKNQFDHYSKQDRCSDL

For `Cl.Oc1cccc2ccc(/C=C/C3=CCN(Cc4ccccc4C(F)(F)F)CC3)nc12`, the pIC50 [1] was 6.96, the Activity [2] was “Active” and the Activity [3] was “Active”. The Activity [4] was “Active”, the Activity [5] was “Active” and the Activity [6] was “Active”. For the same compound, the inhibition [7] was “Active”, the inhibition [8] was “Active” and the inhibition [9] was “inactive”. For the same compound, the inhibition [10] was “Dose-Dependent Effect”, the pIC50 [11] was 2.78 and the Activity [12] was “Non-Toxic”. For the same compound, the pIC50 [13] was 3.79, the Activity [14] was “Active” and the pIC50 [15] was 3.36. For the same compound, the Activity [16] was “Active”, the pIC50 [17] was 3.67 and the Activity [18] was “Active”. For the same compound, the Activity [19] was “Active”, the pIC50 [20] was 4.09 and the pIC50 [21] was 3.86. For the same compound, the Activity [22] was “Non-Toxic”, the Activity [23] was “Non-Toxic” and the Activity [24] was “Non-Toxic”. The Activity [25] was “Non-Toxic”, the Activity [26] was “Non-Toxic” and the Activity [27] was “Non-Toxic”. The Activity [28] was “Non-Toxic”, the Activity [29] was “Non-Toxic” and the Activity [30] was “Non-Toxic”. For the same compound, the Activity [31] was “Non-Toxic”, the Activity [32] was “Non-Toxic” and the Activity [33] was “Non-Toxic”. For the same compound, the Activity [34] was “Non-Toxic”, the Activity [35] was “Non-Toxic” and the Activity [36] was “Non-Toxic”. For the same compound, the Time [37] was 35.22 s, the Activity [38] was 8.05 m and the Activity [39] was “Active”. The Activity [40] was “Active”, the Activity [41] was “Active” and the Activity [42] was “Active”. The Activity [43] was “Active” and the Activity [44] was “Active”.
